Results reported in ChEMBL document CHEMBL4699566, “Pharmacophore modeling, design, and synthesis of potent antihypertensives, oxazolo/thiazolo-[3,2-a]-pyrimidin-3(2H)-one, and 1,5-dihydroimidazo-[1,2-a]-pyrimidin-3(2H)-one derivatives: A pilot trial” (2020).

Key:
Type in all cases: functional
Rattus norvegicus [1] = assay: Antihypertensive activity in spontaneously hypertensive rat assessed as reduction in mean arterial blood pressure at 3 mg/kg, po measured after 12 hrs relative to nifedipine; design: scale not given: the % may be the effect or the level left
Rattus norvegicus [2] = assay: Antihypertensive activity in spontaneously hypertensive rat assessed as reduction in mean arterial blood pressure at 3 mg/kg, po measured after 12 hrs
Rattus norvegicus [3] = assay: Antihypertensive activity in spontaneously hypertensive rat assessed as reduction in mean arterial blood pressure at 3 mg/kg, po measured after 6 hrs
Rattus norvegicus [4] = assay: Antihypertensive activity in spontaneously hypertensive rat assessed as reduction in mean arterial blood pressure at 3 mg/kg, po measured after 6 hrs relative to nifedipine; design: scale not given: the % may be the effect or the level left
Rattus norvegicus [5] = assay: Antihypertensive activity in spontaneously hypertensive rat assessed as reduction in mean arterial blood pressure at 1.5 mg/kg, po measured after 12 hrs
Rattus norvegicus [6] = assay: Antihypertensive activity in spontaneously hypertensive rat assessed as reduction in mean arterial blood pressure at 1.5 mg/kg, po measured after 12 hrs relative to nifedipine; design: scale not given: the % may be the effect or the level left
Rattus norvegicus [7] = assay: Antihypertensive activity in spontaneously hypertensive rat assessed as reduction in mean arterial blood pressure at 1.5 mg/kg, po measured after 6 hrs relative to nifedipine; design: scale not given: the % may be the effect or the level left
Rattus norvegicus [8] = assay: Antihypertensive activity in spontaneously hypertensive rat assessed as reduction in mean arterial blood pressure at 1.5 mg/kg, po measured after 6 hrs

| SMILES | Activity (Rattus norvegicus [1]) | Activity (Rattus norvegicus [2]) | Activity (Rattus norvegicus [3]) | Activity (Rattus norvegicus [4]) | Activity (Rattus norvegicus [5]) | Activity (Rattus norvegicus [6]) | Activity (Rattus norvegicus [7]) | Activity (Rattus norvegicus [8]) |
| --- | --- | --- | --- | --- | --- | --- | --- | --- |
| CCOC(=O)C1=C(C)N=C2NC(C)C(=O)N2C1c1cccc(C)c1 (centres undefined) | 92.02% | 24.65 mmHg | 18 mmHg | 95.46% | 11.51 mmHg | 92.95% | 79.78% | 5.5 mmHg |
| CCOC(=O)C1=C(C)N=C2SC(C)C(=O)N2C1c1ccccc1O (centres undefined) | – | 9.18 mmHg | 4.47 mmHg | – | 1.29 mmHg | – | – | 0.58 mmHg |
| CCOC(=O)C1=C(C)N=C2OC(C)C(=O)N2C1c1cccc([N+](=O)[O-])c1 (centres undefined) | – | 15.16 mmHg | 8.19 mmHg | – | 4.1 mmHg | – | – | 2.01 mmHg |
| CCOC(=O)C1=C(C)N=C2NC(C)C(=O)N2C1c1ccccc1 (centres undefined) | 92.02% | 25.38 mmHg | 18.1 mmHg | 95.46% | 12.39 mmHg | 92.95% | 79.78% | 5.96 mmHg |
| CCOC(=O)C1=C(C)N=C2OC(C)C(=O)N2C1c1ccc([N+](=O)[O-])cc1 (centres undefined) | – | 12.97 mmHg | 7.22 mmHg | – | 2.59 mmHg | – | – | 1.8 mmHg |
| CCOC(=O)C1=C(C)N=C2SC(C)C(=O)N2C1c1ccc(C)c(C)c1 (centres undefined) | – | 8.24 mmHg | 5.76 mmHg | – | 2.2 mmHg | – | – | 1.62 mmHg |
| CCOC(=O)C1=C(C)N=C2SC(C)C(=O)N2C1c1cccc(Cl)c1 (centres undefined) | – | 7.2 mmHg | 5.37 mmHg | – | 1.41 mmHg | – | – | 1.16 mmHg |
| CCOC(=O)C1=C(C)N=C2OC(C)C(=O)N2C1c1ccccc1 (centres undefined) | – | 10.9 mmHg | 6.04 mmHg | – | 1.82 mmHg | – | – | 1.12 mmHg |
| COC(=O)C1=C(C)NC(C)=C(C(=O)OC)C1c1ccccc1[N+](=O)[O-] [NIFEDIPINE] | – | 27.58 mmHg | 18.96 mmHg | – | 13.33 mmHg | – | – | 7.47 mmHg |
